Test results from patent publication US20080058249A1, “Complexes” (Lipopeptide AB, priority 2004, published 2008).

Key:
[1] = Ocular inspection of appearance of aqueous peptide/CPL-Galactolipid mixtures; type: physicochemical; settings: after 2 h and 2 days of storage at room temperature; 0.20% CPL-Galactolipid; LL-25 68-98 ppm, LL-37 98-213 ppm, LL-38 50-102 ppm, LL-20 52-98 ppm
Method: To prepare the solution of the complex the peptide and CPL-Galactolipid are weighed in a 100 ml glass flask and then PBS (10 mM sodium phosphate, 150 mM NaCl, pH 7.4) is added. The sample is vigorously shaken, using a suitable shaker at high speed, for 1-2 h or until the mixture has become clear, and is then allowed to equilibrate and settle for about 30 min at room temperature. Samples of LL-20, LL-25, LL-37 and LL-38 as trifluoroacetate salts and CPL-Galactolipid were prepared using the amounts stated in Table 1 below. The peptide mixtures all contained 0.20% CPL-Galactolipid.
Ocular inspections were made after 2 h and 2 days of storage at room temperature of the mixtures. […] The molecular weight of LL-20 was calculated to be 2.4 kDa.

Bacillius megaterium = experiment: Inhibition zone assay of antimicrobial activity; type: cell-based; settings: complex with CPL-Galactolipid; LL-25 at 68 ppm
Method: Test of antimicrobial activity of LL-20 and LL-25 complexes The antimicrobial activity was tested using an inhibition zone assay. As a test bacterium, Bacillius megaterium was used.

[2] = at certain weight ratios; cited from earlier work
[3] = when complexed with galactolipids; cited from earlier work
[4] = test system: elastase from Pseudomonas aeruginosa; experiment: in vitro; settings: isolated enzyme elastase, pH 7.4
Method: (§1) In this study we compared the enzymatic degradation rate of LL-37 in an aqueous buffered system to that of a colloidal solution of LL-37 in a galactolipid complex. The experimental procedures for enzymatic degradation were essentially as described using a reverse phase HPLC system (C-18) operating at 210 nm.
(§2) In brief: Two stock solutions A and B were prepared. Solution A, “the reference”, contained 100 μg/ml of LL-37 in PBS, pH 7.4. Solution B, “the complex”, contained in addition to 100 μg/ml LL-37 in PBS, pH 7.4, 0.2% of galactolipids (w/w). Two sets of samples were prepared in Eppendorf tubes, 8 tubes from each stock solution. […] The reactions were kept at 37° C. and samples were withdrawn at predetermined intervals. The reactions were stopped by heating the samples to 100° C. for 5 minutes. After stopping, the reactions were stored at −18° C. prior analysis.
(§3) All samples were analysed in duplicates and the peak area for LL-37 was normalized to that of the negative control, which was set to 1.00. Retention times are given as relative retention time (RRT) to LL-37, which is set to RRT=1.00.

[5] = target: elastase from Pseudomonas aeruginosa (Pseudomonas aeruginosa, UniProt P14756); experiment: in vitro; settings: for RRT 0.66 degradation fragment, normalized peak area / RRT 0.88 degradation fragment, normalized peak area: elastase:peptide approx. 1:2500, 37° C.
Method: as §1, §2, §3

Sequence of elastase from Pseudomonas aeruginosa (Pseudomonas aeruginosa, UniProt P14756) (P14756 198-498): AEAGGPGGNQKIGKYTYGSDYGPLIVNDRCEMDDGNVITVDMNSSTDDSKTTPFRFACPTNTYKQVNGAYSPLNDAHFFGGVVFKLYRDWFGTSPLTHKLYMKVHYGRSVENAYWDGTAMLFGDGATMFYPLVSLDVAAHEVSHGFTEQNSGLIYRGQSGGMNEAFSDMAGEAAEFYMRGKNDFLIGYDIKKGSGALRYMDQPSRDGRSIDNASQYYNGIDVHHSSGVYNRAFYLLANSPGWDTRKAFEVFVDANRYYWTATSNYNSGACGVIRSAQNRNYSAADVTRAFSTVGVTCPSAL

Molecule: LLGDFFRKSKEKIGKEFKRIVQRIKDFLRNLVPRTESS [LL-38]
- Ocular inspection of the mixtures [1]: clear or almost clear solutions

Molecule: LLGDFFRKSKEKIGKEFKRIVQRIK [LL-25]
- Ocular inspection of the mixtures [1]: clear or almost clear solutions
- Antimicrobial activity (Bacillius megaterium): showed an antimicrobial activity

Molecule: LLGDFFRKSKEKIGKEFKRIVQRIKDFLRNLVPRTES [LL-37]
- Ocular inspection of the mixtures [1]: clear or almost clear solutions
- Formation of colloidal solutions with galactolipids [2]: formed stable, clear colloidal solutions
- In vitro cytotoxicity [3]: reduced

Molecule: CC[C@H](C)[C@H](NC(=O)[C@H](CCCCN)NC(=O)[C@H](CCC(=O)O)NC(=O)[C@H](CCCCN)NC(=O)[C@H](CO)NC(=O)[C@H](CCCCN)NC(=O)[C@H](CCCNC(=N)N)NC(=O)[C@H](Cc1ccccc1)NC(=O)[C@H](Cc1ccccc1)NC(=O)[C@H](CC(=O)O)NC(=O)CNC(=O)[C@H](CC(C)C)NC(=O)[C@@H](N)CC(C)C)C(=O)NCC(=O)N[C@@H](CCCCN)C(=O)N[C@@H](CCC(=O)O)C(=O)N[C@@H](Cc1ccccc1)C(=O)N[C@@H](CCCCN)C(=O)N[C@@H](CCCNC(=N)N)C(=O)N[C@H](C(=O)N[C@H](C(=O)N[C@@H](CCC(N)=O)C(=O)N[C@@H](CCCNC(=N)N)C(=O)N[C@H](C(=O)N[C@@H](CCCCN)C(=O)N[C@@H](CC(=O)O)C(=O)N[C@@H](Cc1ccccc1)C(=O)N[C@@H](CC(C)C)C(=O)N[C@@H](CCCNC(=N)N)C(=O)N[C@@H](CC(N)=O)C(=O)N[C@@H](CC(C)C)C(=O)N[C@H](C(=O)N1CCC[C@H]1C(=O)N[C@@H](CCCNC(=N)N)C(=O)N[C@H](C(=O)N[C@@H](CCC(=O)O)C(=O)N[C@@H](CO)C(=O)O)[C@@H](C)O)C(C)C)[C@@H](C)CC)C(C)C)[C@@H](C)CC [LL-37 in aqueous buffer]
- remaining at 1 min, 100 μg/ml [4]: 30%
- remaining at 5 min, 100 μg/ml [4]: 23%
- RRT 0.66 degradation fragment, normalized peak area ([5]; 1 min): 0.1
- RRT 0.88 degradation fragment, normalized peak area ([5]; 1 min): 0.4
- RRT 0.66 degradation fragment, normalized peak area ([5]; 5 min): 0.14
- RRT 0.88 degradation fragment, normalized peak area ([5]; 5 min): 0.36
- RRT 0.66 degradation fragment, normalized peak area ([5]; 15 min): 0.27
- RRT 0.88 degradation fragment, normalized peak area ([5]; 15 min): 0.04
- RRT 0.66 degradation fragment, normalized peak area ([5]; 30 min): 0.54
- RRT 0.66 degradation fragment, normalized peak area ([5]; 1 h): 0.46
- RRT 0.66 degradation fragment, normalized peak area ([5]; 4 h): 0.31
- RRT 0.66 degradation fragment, normalized peak area ([5]; 20 h): 0.08
- Degradation when treated with elastase ([5]; elastase from Pseudomonas aeruginosa, 37° C., up to 20 h): rapidly degraded
- RRT 1.00 (LL-37) peak area normalized to negative control (1.00) ([5]; time 0, 100 μg/ml LL-37, PBS pH 7.4, 37° C.): 1.00
